Data set [1] has as its system human cancer cell lines (HeLa, SiHa, A2780, MCF-7 and MDA-MB-231). Put plainly: MTT antiproliferative assay, whole cancer cell panel. As to conditions: 10 and 30 μM. Format: cell-based. On the procedure: (§1) The in vitro antiproliferative activities of the synthesised aminotriols 5–18 against a panel of different human cancer cell lines of gynecological origin, including cervical (SiHA and HeLa), breast (MCF7 and MDA-MB-231), ovary (A2780) cancers and NIH/3T3 healthy fibroblasts, were assayed by the MTT method. Cisplatin, a clinically applied anticancer agent was used as a reference compound, and the results are summarised in Figure 3 and Table S1 in the Supplementary Materials.
(§2) The growth-inhibitory effects of the presented terpenes were determined by a standard MTT [3-(4,5-dimethylthiazol2-yl)-2,5-diphenyltetrazolium bromide] assay against […] human cancer cell lines (cervical cancer HeLa and SiHa cell lines, breast cancer MCF-7 and MDA-MB-231 and ovarian cancer A2780). Murine embryonal fibroblast cells (NIH/3T3) were used to determine selectivity. All cell lines were purchased from the European Collection of Cell Cultures (Salisbury, UK). The cells were cultivated in Eagle’s minimal essential medium supplemented with 10% fetal bovine serum, 1% non-essential amino acids, and 1% Antibiotic-Antimycotic complex (penicillin, streptomycin, amphotericin B) at 37 °C in a humidified atmosphere containing 5% CO2. All media and supplements were purchased from Lonza Group Ltd. (Basel, Switzerland). Cancer cells were seeded into 96-well plates (5000 cells/well) after an overnight incubation, and the test compounds were added at two different concentrations (10 μM and 30 μM) and incubated for another 72 h under cell-culturing conditions. Finally, 20 μL of a 5 mg/mL MTT solution was added to each well, and the contents were incubated for a further 4 h. The medium was removed, and the precipitated formazan crystals were dissolved in DMSO by shaking at 37 °C for 60 min. The absorbance was measured at 545 nm by using a microplate reader (SPECTROStar Nano, BMG Labtech, Offenburg, Germany). Clinically utilised anticancer agent cisplatin (Ebewe GmbH, Unterach, Austria) was included as a reference molecule. Calculations were performed using the GraphPad Prism 9 software (GraphPad Software Inc., San Diego, CA, USA).

Data set [2] in a line: Kinetic aqueous solubility. In kind it is physicochemical. As to conditions: phosphate buffered saline with 5% DMSO, aqueous with cosolvent or surfactant or cyclodextrin, kinetic from dmso stock; after 2 h, at 37 °C in PBS, pH 7.4, 5% DMSO; target concentration 500 μM; mean ± S.E.M, n = 3. The protocol:
(§3) Filtrates and calibration solutions (5–500 μ M) of the kinetic solubility study and starting donor and acceptor solutions of the PAMPA-GI study were investigated by HPLC-DAD-MS. LC-MS analysis was performed using a Waters 2795 HPLC with a Waters 2487 DAD detector coupled with a Micromass Quattro Ultima TMPt quadrupol mass spectrometer equipped with an ESI source. Measurements were performed on a Waters XSelect C18 (150 × 4.6 mm; 3.5 μm) column with a […] eluent flow rate and the temperature set at 40 °C. The composition of eluent A was MilliQ water with 0.1% formic acid, and that of eluent B was an acetonitrile and MilliQ water mixture (95:5, v/v), also with 0.1% formic acid. The following linear gradient program was used: 0–6 min, 10–100% B; this was held for 3 min, then from 9.01 min on, back to the starting composition of 10% B–90% A. The injection volume was 10 μL for each sample. Chromatographic profiles were registered at dual wavelength, 220 and 240 nm. The mass spectrometer was used in negative ion mode for samples 2, 3 and 4b, and in positive ion mode for other samples. The operating parameters of the MS were: Mass range of m/z 150–700. Nitrogen gas flow rate was 350 L/h, temperature of 350 °C and pressure of 6 bar. The quadrupol temperature was 120 °C, and the capillary voltage was 2.5 kV. Fragmentor’s voltage of 60 V.
(§4) Intestinal (GI) permeability was determined by using an intestinal-specific parallel artificial membrane permeability assay (PAMPA-GI [36]]). […] All solutions were filtered by MultiScreen HTS Vacuum Manifold (Merck Ltd., Budapest, Hungary) after the incubation period. The target concentration was 500 μM for every sample investigated. The intestinal-specific effective permeability of the samples was determined by PAMPA-GI. To prepare starting solutions for a 96-well donor plate, 15 μLs of the 10 mM DMSO stock solution of investigation compounds and 285 μL pH 6.5 phosphate buffer solution were mixed. These solutions were left in a shaking incubator (300 rpm) at 25 °C for 1 h. Meanwhile, a 96-well acceptor plate was filled with 300 μL of pH 7.4 PBS buffer solution containing 5% DMSO. The intestinal-specific artificial membrane was prepared the following way: the hydrophobic filter material of the donor plate was coated with a mixture of phosphatidylcholine/cholesterol = 2:1 (5 μL, 4 % (w/v) in dodecane). After that, all donor wells were filled with 150 μL of the starting donor solutions, and they were carefully placed on the acceptor plate and incubated at 37 °C for 4 h. After the end of the incubation period the donor and acceptor plates were separated carefully. A total of 150 μL of the donor, acceptor and the starting donor solutions were sampled and analysed with HPLC-DAD-MS. The effective permeability and membrane retention of drugs were calculated using the following equations: Pe=−2.303/A·(t−τss)·1/1+rv·lg[−rv+(1+rv/1−MR)·]CD(t)/CD(0) MR=1−CD(t)/CD(0)−VA·CA(t)/VD·CD(0) where Pe is the effective permeability coefficient (cm/s), A is the filter area (0.3 cm^2), VD and VA are the volumes in the donor (0.15 cm^3) and acceptor phase (0.3 cm^3), t is the incubation time (s), τSS is the time to reach steady-state (s), CD(t) is the concentration of the compound in the donor phase at time point t (mol/cm^3), CD(0) is the concentration of the compound in the donor phase at time point zero (mol/cm^3), rv is the aqueous compartment volume ratio (VD/VA), MR is the membrane retention factor.

Data set [3] is described as follows: Intestinal-specific parallel artificial membrane permeability assay (PAMPA-GI). In kind it is in vitro ADME. As to conditions: gradient pH system (pH donor 6.5 → pH acceptor 7.4) after 4 h, at 37 °C, mean ± S.E.M, n = 3. The protocol:
as §3, §4

For another data set, the system named is HeLa cells. Briefly: MTT antiproliferative assay, HeLa. Format: cell-based, human. As to conditions: for inhibition at 10 µM / inhibition at 30 µM: Homo sapiens, HeLa, 72 h, values <20% considered negligible, read-out: Growth inhibition (%) ± SEM, HeLa. The protocol:
as §1, §2

Another data set relates to SiHa cells. Put plainly: MTT antiproliferative assay, SiHa. As to conditions: for inhibition at 10 µM / inhibition at 30 µM: Homo sapiens, SiHa, 72 h, values <20% considered negligible, read-out: Growth inhibition (%) ± SEM, SiHa. Format: cell-based, human. On the procedure: as §1, §2
The next data set relates to MCF-7 cells. Put plainly: MTT antiproliferative assay, MCF-7. In kind it is cell-based, human. As to conditions: for inhibition at 10 µM / inhibition at 30 µM: Homo sapiens, 72 h, values <20% considered negligible, read-out: Growth inhibition (%) ± SEM, MCF-7; for inhibition at 10 µM: MCF7, 10 μM; for inhibition at 30 µM: MCF7, 30 μM. The protocol:
as §1, §2

For another data set, the system named is MDA-MB-231 cells. Put plainly: MTT antiproliferative assay, MDA-MB-231. In kind it is cell-based, human. As to conditions: for inhibition at 10 µM / inhibition at 30 µM: Homo sapiens, 72 h, values <20% considered negligible, read-out: Growth inhibition (%) ± SEM, MDA-MB-231; for inhibition at 10 µM: MDA-MB-231, 10 μM; for inhibition at 30 µM: MDA-MB-231, 30 μM. The protocol: as §1, §2

A further data set has as its system A2780 cells. Put plainly: MTT antiproliferative assay, A2780. In kind it is cell-based, human. As to conditions: for inhibition at 10 µM / inhibition at 30 µM: Homo sapiens, 72 h, values <20% considered negligible, read-out: Growth inhibition (%) ± SEM, A2780; for inhibition at 10 µM: A2780, 10 μM; for inhibition at 30 µM: A2780, 30 μM. The protocol: as §1, §2

The test system of a further data set is NIH/3T3 fibroblasts. Briefly: MTT assay on fibroblasts (selectivity). In kind it is cell-based, murine. As to conditions: Mus musculus, 72 h, values <20% considered negligible, read-out: Growth inhibition (%) ± SEM, NIH/3T3; for inhibition at 10 µM: NIH3T3, 10 μM; for inhibition at 30 µM: NIH3T3, 30 μM. The protocol: as §1, §2

In brackets after ≈: the same amount, converted by molar mass. Entries after “also recorded” stand apart in the source; their conditions may differ. Bounds are passed on as bounds.

With `C=C1[C@H](O)[C@@]23CC[C@H]4[C@@](C)(CCC[C@@]4(C)C(=O)O)[C@@H]2CC[C@]1(O)C3` [Compound 2], in [1], the “Antiproliferative activity on the cancer cell panel, in words” value (“Antiproliferative activity” for short) is on record as “any notable effect was not detectable”. This molecule registered a kinetic solubility at 2 h in data set [2] of 443 ± 35.7 µM (≈ 148 µg/mL). Moreover, in data set [3] (PAMPA, read-out: PAMPA-GI Pe), the Papp at 4 h, 500 µM worked out at 0.52 ± 0.02 ×10⁻⁶ cm/s. In addition, the “PAMPA-GI MR (membrane retention)” value in [3] came out at 6.5 ± 0.7%.

Consider `C=C1[C@H](O)[C@@]23CCC4[C@@](C)(CCC[C@@]4(C)C(=O)OC)C2CC[C@]1(O)C3` (stereo partly drawn) [Compound 3, (4R,6aR,7R,9S,11bS)-Methyl 7,9-Dihydroxy-4,11b-dimethyl-8-methylenetetradecahydro-6a,9-methanocyclohepta[a]naphthalene-4-carboxylate], for which the melting point is 253 to 255 °C. Besides, in the data set on HeLa cells, the inhibition at 10 µM is under 20% and the inhibition at 30 µM is 27.9 ± 2.3%. In the data set on SiHa cells, the inhibition at 10 µM was under 20% and the inhibition at 30 µM was determined as 30.7 ± 2.71%. Also, in the data set with MCF-7 cells, the inhibition at 10 µM is under 20% and the inhibition at 30 µM came out at 49.2 ± 2.19%. In the data set with MDA-MB-231 cells, the inhibition at 10 µM is under 20% and the inhibition at 30 µM is under 20%. Moreover, in the data set on A2780 cells, the inhibition at 10 µM was under 20% and the inhibition at 30 µM is under 20%. Moreover, in the data set on NIH/3T3 fibroblasts, the inhibition at 10 µM is under 20% and the inhibition at 30 µM was under 20%. For the same molecule, the “Antiproliferative activity” value in data set [1] is recorded as “any notable effect was not detectable”.

The molecule `COC(=O)[C@]1(C)CCC[C@@]2(C)C3CC[C@]4(O)C[C@@]3(CCC21)[C@@H](O)[C@]41CO1` (stereo partly drawn) [Compound 4b, (2’R,4R,6aR,7R,9S,11bS)-Methyl 7,9-Dihydroxy-4,11b-dimethyldodecahydro-1H-spiro[6a,9-methanocyclohepta[a]naphthalene-8,2’-oxirane]-4-carboxylate] gave a melting point of 182 to 185 °C. Also, the “Antiproliferative effect on HeLa, in words” value in the data set on HeLa cells (10 and 30 μM) was “potent inhibition”. Moreover, in the data set on HeLa cells, the inhibition at 10 µM amounted to 30.6 ± 1.09% and the inhibition at 30 µM worked out at 95.35 ± 0.11%. Moreover, in the data set with SiHa cells, the inhibition at 10 µM is under 20% and the inhibition at 30 µM is 58 ± 2.66%. In the data set on MCF-7 cells, the inhibition at 10 µM is under 20% and the inhibition at 30 µM is 53.1 ± 2.2%. Besides, in the data set on MDA-MB-231 cells, the inhibition at 10 µM is under 20% and the inhibition at 30 µM was 36.7 ± 1.62%. Moreover, in the data set on A2780 cells, the inhibition at 10 µM was under 20% and the inhibition at 30 µM is 62 ± 0.78%. Further, in the data set on NIH/3T3 fibroblasts, the inhibition at 10 µM is under 20% and the inhibition at 30 µM is 37.2 ± 0.71%. In addition, the “Antiproliferative activity” value in [1] is listed as “significant activity in higher concentrations only”.

As for `COC(=O)[C@]1(C)CCC[C@@]2(C)C3CC[C@]4(O)C[C@@]3(CCC21)[C@@H](O)[C@]41CN(Cc2ccccc2)CO1` (stereo partly drawn) [Compound 18, (4R,5’R,6aR,7R,9S,11bS)-Methyl 3’-Benzyl-7,9-dihydroxy-4,11b-dimethyldodecahydro-1H-spiro [6a,9-methanocyclohepta[a]naphthalene-8,5’-oxazolidine]-4-carboxylate], the melting point fell in the range of 123 to 125 °C. In the data set with HeLa cells, the inhibition at 10 µM was under 20% and the inhibition at 30 µM came out at 41.1 ± 1.95%. In the data set on SiHa cells (10 and 30 μM), the “Antiproliferative effect on SiHa, in words” value was “moderate activity”. Moreover, in the data set on SiHa cells, the inhibition at 10 µM was under 20% and the inhibition at 30 µM turned out to be 66.1 ± 2.45%. For the same molecule, in the data set on MCF-7 cells (10 and 30 μM), the “Antiproliferative effect / selectivity on MCF-7, in words” value is listed as “Selectivity for MCF-7 cells increased slightly”. In the data set with MCF-7 cells, the inhibition at 10 µM is under 20% and the inhibition at 30 µM is 95.18 ± 0.35%. Moreover, the “Antiproliferative effect / selectivity on MDA-MB-231, in words” value in the data set on MDA-MB-231 cells (10 and 30 μM) was “moderate activity; also recorded: smaller but also selective antiproliferative effect”. In addition, in the data set on MDA-MB-231 cells, the inhibition at 10 µM was under 20% and the inhibition at 30 µM was found to be 87.7 ± 0.91%. In addition, in the data set on A2780 cells (10 and 30 μM), the “Antiproliferative effect on A2780, in words” value is recorded as “moderate activity”. Also, in the data set on A2780 cells, the inhibition at 10 µM is under 20% and the inhibition at 30 µM is 58.5 ± 3.18%. Further, in the data set on NIH/3T3 fibroblasts, the inhibition at 10 µM was under 20% and the inhibition at 30 µM is under 20%. In addition, the solubility (kinetic) at 2 h in [2] came to 321 ± 88.5 µM (≈ 155 µg/mL). Further, the “PAMPA-GI MR (membrane retention)” value in data set [3] is recorded as 2.7 ± 0.4%.

The values are drawn from PMC9861858, “Stereoselective Synthesis and Antiproliferative Activities of Tetrafunctional Diterpene Steviol Derivatives” (International Journal of Molecular Sciences, 2023).
